Earlier results on 7 compounds are cited in US20190254579A1, “INTEGRATED DEVICES TO CONTINUOUSLY MEASURE BOUND AND UNBOUND ANALYTE FRACTIONS IN BIOFLUIDS” (Eccrine Systems, Inc., priority 2015, published 2019).

In general, logP refers to a log measure of how a compound divides between an organic and an aqueous phase.

For series [1] the following is noted: water/octanol.

Values after ≈ are worked out from the molar mass of the structure shown. Where two headings read alike, the source gives them in different places.

In the case of `CCCCC/C=C\C/C=C\CCCCCCCC(=O)OC(CO)CO` [2-Linoleoyl Glycerol], the logP in series [1] is recorded as 5.6. For `CCCCC/C=C\C/C=C\C/C=C\C/C=C\CCCC(=O)O` [Arachidonic Acid], the logP in series [1] is recorded as 7. The “Solubility in Water” value (stated in words) is given as “Negligible”.

On to `CCCC/C=C\CCCCCCCC(=O)O` [Myristoleic Acid], for which, in series [1], the log partition coefficient (logP) is recorded as 5.1. With `CCCCCCCC/C=C\CCCCCCCC(=O)O` [Oleic Acid], the logP in series [1] is listed as 7.64. Turning to `CCCCCC/C=C\CCCCCCCC(=O)O` [Palmitoleic Acid], the logP in series [1] was 6.4. Moreover, for the setting “stated in words”, the “Solubility in Water” value is recorded as “Low”. Regarding `CC(C)CCCC(C)CCCC(C)CCCC(C)CC(=O)O` (stereo not shown) [Phytanic Acid], the logP in series [1] is given as 8.3. `CCCCCC[C@@H](O)C/C=C\CCCCCCCC(=O)O` [Ricinoleic Acid]: the “Solubility in Water” value was 3460 µg/mL (≈ 11.6 mM). In series [1], the logP was 5.7.
